Measured values reported in US5488060A, “Substituted thiadiazoles, compositions containing them and their use as antimicrobial and marine antifouling agents” (The Dow Chemical Company, priority 1994, dated 1996).
Converted amounts (≈) assume the structure as drawn. Like-named read-outs stand apart in the source and are kept apart here.

Legend:
Assay type in all cases: cell-based
[1] = tested on: Bacillus subtilis (Bs); experiment: Minimum inhibitory concentration (MIC) in nutrient agar, Bacillus subtilis
Outline: (§1)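 Test compound, as a 1% acetone–water solution, was mixed into molten nutrient agar (pH 6.8 or pH 8.2) at 48° C to final levels of 500 down to 1.0 ppm. Plates were dried 24 h, spot-inoculated with 10^8 CFU/mL suspensions of 24-h cultures, and incubated 48 h at 30° C. MIC was the lowest level preventing growth.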

[2] = tested on: Enterobacter aerogenes (Ea); experiment: Minimum inhibitory concentration (MIC) in nutrient agar, Enterobacter aerogenes; conditions: Klebsiella aerogenes, 48 h
Outline: as §1

[3] = tested on: Escherichia coli (Ec); experiment: Minimum inhibitory concentration (MIC) in nutrient agar, Escherichia coli
Outline: as §1

[4] = tested on: Klebsiella pneumoniae (Kp); experiment: Minimum inhibitory concentration (MIC) in nutrient agar, Klebsiella pneumoniae
Outline: as §1

[5] = tested on: Proteus vulgaris (Pv); experiment: Minimum inhibitory concentration (MIC) in nutrient agar, Proteus vulgaris; conditions: 48 h
Outline: as §1

[6] = tested on: Pseudomonas aeruginosa (PRD-10); experiment: Minimum inhibitory concentration (MIC) in nutrient agar, Pseudomonas aeruginosa PRD-10; conditions: 48 h
Outline: as §1

[7] = tested on: Pseudomonas aeruginosa (Pa); experiment: Minimum inhibitory concentration (MIC) in nutrient agar, Pseudomonas aeruginosa; conditions: 30° C., 48 hours, read-out: Minimum Inhibitory Concentration, Pa
Outline: as §1

[8] = tested on: Salmonella choleraesuis (Se); experiment: Minimum inhibitory concentration (MIC) in nutrient agar, Salmonella choleraesuis; conditions: Salmonella enterica, 48 h
Outline: as §1

[9] = tested on: Staphylococcus aureus (Sa); experiment: Minimum inhibitory concentration (MIC) in nutrient agar, Staphylococcus aureus; conditions: 30° C., 48 hours, read-out: Minimum Inhibitory Concentration, Sa
Outline: as §1

[10] = tested on: Aspergillus niger (An); experiment: Minimum inhibitory concentration (MIC) in malt yeast agar, Aspergillus niger; conditions: 72 h, pH 5.5, read-out: Minimum Inhibitory Concentration, An
Outline: (§2)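 Growth is scored at 30 °C after 72 h for fungi and 48 h for yeast on malt yeast agar (pH 5.5) containing compound at final levels from 500 down to zero ppm. Organisms are grown 7 days at 30 °C, suspended in saline with octylphenoxy polyethoxy ethanol, and diluted 1:9 before replicator inoculation.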

[11] = tested on: Candida albicans (Ca); experiment: Minimum inhibitory concentration (MIC) in malt yeast agar, Candida albicans; conditions: 48 h, pH 5.5, read-out: Minimum Inhibitory Concentration, Ca
Outline: as §2

[12] = tested on: Penicillium chrysogenum (Pc); experiment: Minimum inhibitory concentration (MIC) in malt yeast agar, Penicillium chrysogenum; conditions: pH 5.5; malt yeast agar, 30° C., 72 hours for fungi; read-out: Minimum Inhibitory Concentration, PC
Outline: as §2

[13] = tested on: Saccharomyces cerevisiae (Sc); experiment: Minimum inhibitory concentration (MIC) in malt yeast agar, Saccharomyces cerevisiae; conditions: pH 5.5, malt yeast agar, 30° C., 48 hours for yeast, read-out: Minimum Inhibitory Concentration, SC
Outline: as §2

[14] = tested on: Trichoderma viride (Tv); experiment: Minimum inhibitory concentration (MIC) in malt yeast agar, Trichoderma viride; conditions: 72 h, pH 5.5, read-out: Minimum Inhibitory Concentration, Tv
Outline: as §2

[15] = tested on: Aureobasidium pullulan (Ap); experiment: Minimum inhibitory concentration (MIC) in malt yeast agar, Aureobasidium pullulan; conditions: pH 5.5; malt yeast agar, 30° C.; read-out: Minimum Inhibitory Concentration, Ap
Outline: as §2

[16] = tested on: Fusarium oxysporum (Fo); experiment: Minimum inhibitory concentration (MIC) in malt yeast agar, Fusarium oxysporum; conditions: 72 h, pH 5.5, read-out: Minimum Inhibitory Concentration, Fo
Outline: as §2

## N#CSCSc1nsnc1-c1cccnc1 [Example XXXI, 4-(3-Pyridyl)-3-thiocyanatomethylthio-1,2,5-thiadiazole]
[1]; 48 h, pH 8.2, read-out: Minimum Inhibitory Concentration, Bs
  MIC: 25 µg/mL (≈ 93.9 µM)
[1]; pH 6.8, nutrient agar, 30° C., 48 hours, read-out: Minimum Inhibitory Concentration, Bs
  MIC: 50 µg/mL (≈ 188 µM)
[2]; pH 6.8, read-out: Minimum Inhibitory Concentration, Ea
  MIC: 500 µg/mL (≈ 1880 µM)
[2]; pH 8.2, read-out: Minimum Inhibitory Concentration, Ea
  MIC: > 500 µg/mL
[3]; 48 h, pH 6.8, read-out: Minimum Inhibitory Concentration, Ec
  MIC: 500 µg/mL (≈ 1880 µM)
[3]; pH 8.2, nutrient agar, 30° C., 48 hours, read-out: Minimum Inhibitory Concentration, Ec
  MIC: 250 µg/mL (≈ 939 µM)
[4]; 48 h, pH 8.2, read-out: Minimum Inhibitory Concentration, Kp
  MIC: > 500 µg/mL
[4]; pH 6.8, nutrient agar, 30° C., 48 hours, read-out: Minimum Inhibitory Concentration, Kp
  MIC: 500 µg/mL (≈ 1880 µM)
[5]; pH 6.8, read-out: Minimum Inhibitory Concentration, Pv
  MIC: 500 µg/mL (≈ 1880 µM)
[5]; pH 8.2, read-out: Minimum Inhibitory Concentration, Pv
  MIC: > 500 µg/mL
[6]; pH 6.8, read-out: Minimum Inhibitory Concentration, PRD
  MIC: 500 µg/mL (≈ 1880 µM)
[6]; pH 8.2, read-out: Minimum Inhibitory Concentration, PRD
  MIC: > 500 µg/mL
[7]; pH 6.8, nutrient agar
  MIC: 500 µg/mL (≈ 1880 µM)
[7]; pH 8.2, nutrient agar
  MIC: > 500 µg/mL
[8]; pH 6.8, read-out: Minimum Inhibitory Concentration, SC
  MIC: 500 µg/mL (≈ 1880 µM)
[8]; pH 8.2, read-out: Minimum Inhibitory Concentration, SC
  MIC: > 500 µg/mL
[9]; pH 6.8, nutrient agar
  MIC: 100 µg/mL (≈ 375 µM)
[9]; pH 8.2, nutrient agar
  MIC: 50 µg/mL (≈ 188 µM)
[10]
  MIC: 25 µg/mL (≈ 93.9 µM)
[11]
  MIC: 25 µg/mL (≈ 93.9 µM)
[12]
  MIC: 9 µg/mL (≈ 33.8 µM)
[13]
  MIC: 9 µg/mL (≈ 33.8 µM)
[14]
  MIC: 50 µg/mL (≈ 188 µM)
[15]
  MIC: 9 µg/mL (≈ 33.8 µM)
[16]
  MIC: 25 µg/mL (≈ 93.9 µM)
